Results taken from patent US10624917B2, “Compositions and methods useful for treating or preventing liver diseases or disorders, and promoting weight loss” (YALE UNIVERSITY, priority 2014, dated 2020).
Entries after “also recorded” stand apart in the source; their conditions may differ.

Test system: IL-1β production in murine peritoneal macrophages (PECs)
Experiment: IL-1β secretion (ELISA) by primed, ATP-pulsed peritoneal macrophages (PECs)
Assay type: cell-based, mouse
Procedure: FIGS. 1A-1J illustrate the finding that adenosine stimulates IL-1β production in NLRP3 inflammasome-dependent manner. Murine peritoneal macrophages (PECs) were obtained from wild type (WT) mice (FIGS. 1A-1D, 1F-1I), Il1r−/− (FIG. 1E) or Nlrp3−/−, ASC−/−, P2xr7−/−, or Caspase-1−/− mice (FIG. 1J) and were primed with LPS for 16 hours. FIG. 1A: This was followed by treatment for 1 hour with adenosine (Ad, 100 μM), adenosine deaminase inhibitor (EHNA, 10 μM), adenosine deaminase (ADA, 10 U ml^−1), ATP diphosphohydrolase (Apyrase, 10 U ml^−1), or erythro-9-(2-hydroxy-3-nonyl) adenine (EHNA, 10 μM) (FIGS. 1B, 1F-1J)). Pan adenosine agonist (NECA, 1 μM, 10 μM) (FIGS. 1C, 1E), or (FIGS. 1D, 1I) by NECA for 1 and 6 hours, and were then pulsed with ATP for 20 min. Enzyme-linked immunosobent assay (ELISA) of IL-1β, TNF-α, IL-10 and IFN-γ secretion were measured in cell supernatants after pulsing with ATP for 5 hours (FIGS. 1A, 1C-1E, 1J) or indicated time-course (FIGS. 1B, 1G-1I). LDH assay was performed after pulsing with ATP as indicated time-course (FIG. 1F). Data are expressed as the mean±SD from at least three independent experiments. *p<0.05 determined by Student's t-test.
C57BL/6 mice were purchased from the National Cancer Institute. ASC−/−, Caspase-1−/−, Nlrp3−/− and P2xr7−/− mice have been described (Rock et al., 2010, Annu Rev Immunol. 28:321-42). A2ora2a flox/flox mice and LysMcre mice were purchased from Jackson Laboratories. HIF-1a flox/flox mice were kindly provided by Dr. Ruslan M Medzhitov (Yale University). 7- to 12-week-old males with a variety of genetic manipulations were used in most experiments. The number of mice in each experimental group was chosen based on previous experience with these experimental models. Mouse peritoneal macrophages (PECs) were isolated by peritoneal lavage 3 days after intraperitoneal injection of 4% thioglycollate solution (B2551, Fluka,). Cells were plated at the density of 3×10^6 cells in 12-well dishes and non-adherent cells were removed after 3 h. Cells primed overnight with 100 ng/ml LPS or 10 ng/ml Pam3CSK4 were treated with various chemicals and followed stimulation. Cells were cultured in DMEM medium complemented with 10% FBS, penicillin/streptomycin and L-glutamine. Mouse bone marrow derived macrophages were isolated from bone marrow cells, and were differentiated for 7 days in complete RPMI-1640 medium supplemented with 2 mM L-glutamine, 100 U/ml penicillin, 100 μg/ml streptomycin, 50 μM 2-mercaptoethanol (all from Invitrogen), 10% heat-inactivated FBS and 20 ng/ml M-CSF (PeproTech). Kupffer cells (KC) were isolated by the density gradient separation of Optiprep (Sigma), and then plates were gently washed and media was replenished after seeding cells for 2 hours to raise KC purity.
Primed PECs were both pulsed for 20 min with 5 mM ATP or 10 μM nigericin, and left untreated until culture supernatants were collected. Secretion of IL-1β was determined by enzyme-linked immunoabsorbent assay (ELISA; R&D Systems).

[1] = LPS-primed PECs pulsed with ATP
[2] = PECs from A2A receptor deficient cells

Q: How did the “IL-1β production in wild-type vs IL-1 receptor deficient macrophages” value (LPS + ATP) turn out when `CCNC(=O)[C@H]1O[C@@H](n2cnc3c(N)ncnc32)[C@H](O)[C@@H]1O` [NECA, 5′-(N-ethylcarboxamido) adenosine] was run?
A: to a similar degree

Q: What about the IL-1β production [1] of the same compound?
A: stimulated an increase; also recorded: increased

Q: And the IL-1β production [2]?
A: not increased

Q: What about the “IL-1β production by LPS and ATP” value (macrophages lacking caspase-1, NLRP3, ASC or P2x7 receptor) of the same compound?
A: did not result in significant production of IL-1β

Q: Which IL-1β production [1] does the source give for `CCNC(=O)[C@H]1O[C@@H](n2cnc3c(N)nc(NCCc4ccc(CCC(=O)O)cc4)nc32)[C@H](O)[C@@H]1O` [CGS21680] here?
A: increase IL-1β production to a comparable degree to NECA and EHNA

Q: And the IL-1β production [2]?
A: not increased
